Assay results taken from the supplement of paper PMC10307832.

Legend:
Assay in all cases: relative viability (nuclei count vs DMSO), 5 days (fraction); higher = more cells survive
A-427 = system: A-427
In short: (§1)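 Five library-drug doses in √10 steps were combined with a fixed anchor-drug dose, or a single drug was given alone, by pin tool to lung cancer cell lines in 1536-well plates the day after seeding. Nuclei were stained and counted after 5 days. Relative viability is the nuclei count in treated wells over that in vehicle wells, taken as the median of duplicate plates.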

COR-L 105 = system: COR-L 105
In short: as §1

H3255 = system: H3255
In short: as §1

HCC-44 = system: HCC-44
In short: as §1

HCC-827 = system: HCC-827
In short: as §1

LCLC-103H = system: LCLC-103H
In short: as §1

LOU-NH91 = system: LOU-NH91
In short: as §1

LXF-289 = system: LXF-289
In short: as §1

NCI-H1792 = system: NCI-H1792
In short: as §1

NCI-H1915 = system: NCI-H1915
In short: as §1

NCI-H1944 = system: NCI-H1944
In short: as §1

NCI-H1975 = system: NCI-H1975
In short: as §1

NCI-H1993 = system: NCI-H1993
In short: as §1

NCI-H2023 = system: NCI-H2023
In short: as §1

NCI-H2087 = system: NCI-H2087
In short: as §1

NCI-H2170 = system: NCI-H2170
In short: as §1

NCI-H358 = system: NCI-H358
In short: as §1

NCI-H520 = system: NCI-H520
In short: as §1

SK-MES-1 = system: SK-MES-1
In short: as §1

SW 1573 = system: SW 1573
In short: as §1

## CCNC(=O)c1noc(-c2cc(C(C)C)c(O)cc2O)c1-c1ccc(CN2CCOCC2)cc1 [Luminespib] + C[C@@H](Oc1cc(-c2cnn(C3CCNCC3)c2)cnc1N)c1c(Cl)ccc(F)c1Cl [Crizotinib] (partner 1 µM)
A-427; first compound 0.002 µM
  relative viability: 1.09
A-427; first compound 0.006325 µM
  relative viability: 0.796
A-427; first compound 0.02 µM
  relative viability: 0.955
A-427; first compound 0.06325 µM
  relative viability: 0.873
A-427; first compound 0.2 µM
  relative viability: 0.835
COR-L 105; first compound 0.002 µM
  relative viability: 0.996
COR-L 105; first compound 0.006325 µM
  relative viability: 0.897
COR-L 105; first compound 0.02 µM
  relative viability: 0.976
COR-L 105; first compound 0.06325 µM
  relative viability: 0.165
COR-L 105; first compound 0.2 µM
  relative viability: 0.224
H3255; first compound 0.002 µM
  relative viability: 0.896
H3255; first compound 0.006325 µM
  relative viability: 0.691
H3255; first compound 0.02 µM
  relative viability: 0.755
H3255; first compound 0.06325 µM
  relative viability: 0.621
H3255; first compound 0.2 µM
  relative viability: 0.216
HCC-44; first compound 0.002 µM
  relative viability: 0.843
HCC-44; first compound 0.006325 µM
  relative viability: 0.768
HCC-44; first compound 0.02 µM
  relative viability: 1
HCC-44; first compound 0.06325 µM
  relative viability: 0.12
HCC-44; first compound 0.2 µM
  relative viability: 0.091
HCC-827; first compound 0.002 µM
  relative viability: 0.944
HCC-827; first compound 0.006325 µM
  relative viability: 0.899
HCC-827; first compound 0.02 µM
  relative viability: 0.887
HCC-827; first compound 0.06325 µM
  relative viability: 0.952
HCC-827; first compound 0.2 µM
  relative viability: 0.879
LCLC-103H; first compound 0.002 µM
  relative viability: 1.02
LCLC-103H; first compound 0.006325 µM
  relative viability: 1.04
LCLC-103H; first compound 0.02 µM
  relative viability: 0.908
LCLC-103H; first compound 0.06325 µM
  relative viability: 1.02
LCLC-103H; first compound 0.2 µM
  relative viability: 1.15
LOU-NH91; first compound 0.002 µM
  relative viability: 0.765
LOU-NH91; first compound 0.006325 µM
  relative viability: 0.726
LOU-NH91; first compound 0.02 µM
  relative viability: 0.55
LOU-NH91; first compound 0.06325 µM
  relative viability: 0.328
LOU-NH91; first compound 0.2 µM
  relative viability: 0.351
LXF-289; first compound 0.002 µM
  relative viability: 0.825
LXF-289; first compound 0.006325 µM
  relative viability: 0.79
LXF-289; first compound 0.02 µM
  relative viability: 0.894
LXF-289; first compound 0.06325 µM
  relative viability: 0.459
LXF-289; first compound 0.2 µM
  relative viability: 0.123
NCI-H1792; first compound 0.002 µM
  relative viability: 0.981
NCI-H1792; first compound 0.006325 µM
  relative viability: 0.906
NCI-H1792; first compound 0.02 µM
  relative viability: 0.955
NCI-H1792; first compound 0.06325 µM
  relative viability: 0.435
NCI-H1792; first compound 0.2 µM
  relative viability: 0.119
NCI-H1915; first compound 0.002 µM
  relative viability: 0.952
NCI-H1915; first compound 0.006325 µM
  relative viability: 0.897
NCI-H1915; first compound 0.02 µM
  relative viability: 0.958
NCI-H1915; first compound 0.06325 µM
  relative viability: 0.904
NCI-H1915; first compound 0.2 µM
  relative viability: 0.851
NCI-H1944; first compound 0.002 µM
  relative viability: 1.08
NCI-H1944; first compound 0.006325 µM
  relative viability: 1.04
NCI-H1944; first compound 0.02 µM
  relative viability: 0.775
NCI-H1944; first compound 0.06325 µM
  relative viability: 0.955
NCI-H1944; first compound 0.2 µM
  relative viability: 0.97
NCI-H1975; first compound 0.002 µM
  relative viability: 0.975
NCI-H1975; first compound 0.006325 µM
  relative viability: 0.99
NCI-H1975; first compound 0.02 µM
  relative viability: 0.763
NCI-H1975; first compound 0.06325 µM
  relative viability: 0.147
NCI-H1975; first compound 0.2 µM
  relative viability: 0.15
NCI-H1993; first compound 0.002 µM
  relative viability: 0.929
NCI-H1993; first compound 0.006325 µM
  relative viability: 0.953
NCI-H1993; first compound 0.02 µM
  relative viability: 0.884
NCI-H1993; first compound 0.06325 µM
  relative viability: 0.743
NCI-H1993; first compound 0.2 µM
  relative viability: 0.47
NCI-H2023; first compound 0.002 µM
  relative viability: 0.772
NCI-H2023; first compound 0.006325 µM
  relative viability: 0.586
NCI-H2023; first compound 0.02 µM
  relative viability: 0.569
NCI-H2023; first compound 0.06325 µM
  relative viability: 0.0759
NCI-H2023; first compound 0.2 µM
  relative viability: 0.0557
NCI-H2087; first compound 0.002 µM
  relative viability: 0.934
NCI-H2087; first compound 0.006325 µM
  relative viability: 0.684
NCI-H2087; first compound 0.02 µM
  relative viability: 0.875
NCI-H2087; first compound 0.06325 µM
  relative viability: 0.156
NCI-H2087; first compound 0.2 µM
  relative viability: 0.145
NCI-H2170; first compound 0.002 µM
  relative viability: 1.19
NCI-H2170; first compound 0.006325 µM
  relative viability: 1.23
NCI-H2170; first compound 0.02 µM
  relative viability: 0.655
NCI-H2170; first compound 0.06325 µM
  relative viability: 1.08
NCI-H2170; first compound 0.2 µM
  relative viability: 0.355
NCI-H358; first compound 0.002 µM
  relative viability: 0.699
NCI-H358; first compound 0.006325 µM
  relative viability: 0.647
NCI-H358; first compound 0.02 µM
  relative viability: 0.608
NCI-H358; first compound 0.06325 µM
  relative viability: 0.0797
NCI-H358; first compound 0.2 µM
  relative viability: 0.0988
NCI-H520; first compound 0.002 µM
  relative viability: 0.831
NCI-H520; first compound 0.006325 µM
  relative viability: 0.976
NCI-H520; first compound 0.02 µM
  relative viability: 0.845
NCI-H520; first compound 0.06325 µM
  relative viability: 0.0957
NCI-H520; first compound 0.2 µM
  relative viability: 0.0995
SK-MES-1; first compound 0.002 µM
  relative viability: 0.984
SK-MES-1; first compound 0.006325 µM
  relative viability: 1.03
SK-MES-1; first compound 0.02 µM
  relative viability: 1.08
SK-MES-1; first compound 0.06325 µM
  relative viability: 0.758
SK-MES-1; first compound 0.2 µM
  relative viability: 0.147
SW 1573; first compound 0.002 µM
  relative viability: 0.833
SW 1573; first compound 0.006325 µM
  relative viability: 0.853
SW 1573; first compound 0.02 µM
  relative viability: 0.757
SW 1573; first compound 0.06325 µM
  relative viability: 0.191
SW 1573; first compound 0.2 µM
  relative viability: 0.0946
